Data published in the supplement of paper PMC6580486.

Columns and labels:
PCB490-4 = system: PCB490-4 (human epithelioid sarcoma primary culture)
Method: (§1)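 Roche open-access kinase inhibitor screen (223 compounds) on human epithelioid sarcoma primary cultures from three spatially distinct regions of tumor PCB490. 384-well plates, 72 h, CellTiter-Glo viability; IC50 by Hill curve fit. 100000 nM = no IC50 reached. Compound ids carry a plate-well prefix, which is stripped.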

PCB490-5 = system: PCB490-5 (human epithelioid sarcoma primary culture)
Method: as §1

PCB490-3 = system: PCB490-3 (human epithelioid sarcoma primary culture)
Method: as §1

| SMILES | IC50 cell viability (PCB490-4) | IC50 cell viability (PCB490-5) | IC50 cell viability (PCB490-3) |
| --- | --- | --- | --- |
| Cn1cc(C2=C(c3cn(C)c4ccc(Cl)cc34)C(=O)NC2=O)c2ccccc21 | > 100 µM | > 100 µM | > 100 µM |
| CN=C1NC(=O)/C(=C/c2ccc3ncccc3c2)S1 | > 100 µM | > 100 µM | > 100 µM |
| Cn1cc(C2=C(c3cn(C)c4cc(N)ccc34)C(=O)NC2=O)c2ccccc21 | > 100 µM | > 100 µM | > 100 µM |
| Nc1c(C(=O)c2cccc(OC[C@H](O)CO)c2)cnn1-c1ccc(F)cc1 | > 100 µM | > 100 µM | > 100 µM |
| COc1cc[nH]c1/C=C1\C(=O)Nc2ccccc21 | > 100 µM | > 100 µM | > 100 µM |
| Cn1cc(C2=C(c3c4n(c5ccccc35)CCCCC4)C(=O)NC2=O)c2ccccc21 | > 100 µM | > 100 µM | > 100 µM |
| Nc1c(C(=O)c2cccc(CCCN3CCOCC3)c2)cnn1-c1ccc(F)cc1 | > 100 µM | > 100 µM | > 100 µM |
| CS(=O)(=O)N1CCC(n2c(=O)c(Oc3ccc(F)cc3F)cc3cnc(NC4CCOCC4)nc32)CC1 | > 100 µM | > 100 µM | > 100 µM |
| O=C1NC(=NCc2ccccc2Cl)S/C1=C\c1ccc2ncccc2c1 | > 100 µM | > 100 µM | > 100 µM |
| Cn1cc(C2=C(n3ccc4ccccc43)C(=O)NC2=O)c2ccccc21 | > 100 µM | > 100 µM | > 100 µM |
| Cn1cc(C2=C(c3cccc([N+](=O)[O-])c3)C(=O)NC2=O)c2ccccc21 | > 100 µM | > 100 µM | > 100 µM |
| Cn1cc(C2=C(c3ccc(OCC(O)CO)cc3)C(=O)NC2=O)c2ccccc21 (stereo not given) | > 100 µM | > 100 µM | > 100 µM |
| Cn1cc(C2=C(c3cn(CCCCCO)c4ccccc34)C(=O)NC2=O)c2ccccc21 | > 100 µM | > 100 µM | > 100 µM |
| Nc1c(C(=O)c2cccc(C#CCN3CCCCC3)c2)cnn1-c1ccc(F)cc1 | > 100 µM | > 100 µM | > 100 µM |
| COc1ccc(O)c(C(=O)c2ccc(C(=O)N[C@@H]3CCCNC[C@H]3NC(=O)c3ccncc3)cc2)c1F | > 100 µM | > 100 µM | > 100 µM |
| CNCCCn1cc(C2=C(c3cn(C)c4ccccc34)C(=O)NC2=O)c2ccccc21 | > 100 µM | > 100 µM | > 100 µM |
| Cn1cc(C2=C(c3ccccc3[N+](=O)[O-])C(=O)NC2=O)c2ccccc21 | > 100 µM | > 100 µM | > 100 µM |
| Nc1c(C(=O)c2cccc(-c3cccnc3)c2)cnn1-c1ccc(F)cc1F | > 100 µM | > 100 µM | > 100 µM |
| CSc1c(C2=C(c3cn(C)c4ccccc34)C(=O)NC2=O)c2ccccc2n1C | > 100 µM | > 100 µM | > 100 µM |
| C[C@@H](c1ccccc1)[C@@H](C(=O)Nc1ccc(I)cc1F)N1C(=O)N[C@H](c2ccc(OC[C@H](O)CO)cc2)C1=O | > 100 µM | > 100 µM | > 100 µM |

| SMILES | IC50 cell viability (PCB490-4) | IC50 cell viability (PCB490-5) | IC50 cell viability (PCB490-3) |
| --- | --- | --- | --- |
| O=C1NC(=NCCc2ccc(Cl)cc2)S/C1=C\c1ccc2ncccc2c1 | > 100 µM | > 100 µM | > 100 µM |
| Nc1c(C(=O)c2ccc(-c3cccnc3)cc2)cnn1-c1ccc(F)cc1 | > 100 µM | > 100 µM | > 100 µM |
| COc1ccccc1CN=C1NC(=O)/C(=C/c2ccc3ncccc3c2)S1 | > 100 µM | > 100 µM | > 100 µM |
| Fc1ccc(-c2c(-c3ccncc3)[nH]c3nccnc23)cc1 | > 100 µM | > 100 µM | > 100 µM |
| COc1ccccc1CCN=C1NC(=O)/C(=C/c2ccc3ncccc3c2)S1 | > 100 µM | > 100 µM | > 100 µM |
| C[C@@H](CS(C)(=O)=O)Nc1ncc2cc(Oc3ccc(F)cc3F)c(=O)n(C)c2n1 | > 100 µM | > 100 µM | > 100 µM |
| N#Cc1cccc(C(=O)c2cnn(-c3ccc(F)cc3)c2N)c1 | > 100 µM | > 100 µM | > 100 µM |
| O=C1NC(=O)C(c2c[nH]c3ccccc23)=C1c1ccccc1 | > 100 µM | > 100 µM | > 100 µM |
| COc1cccc(C2=C(c3cn(C)c4ccccc34)C(=O)NC2=O)c1 | > 100 µM | > 100 µM | > 100 µM |
| CC(C)(O)Cn1c(=O)c(Oc2ccc(F)cc2F)cc2cnc(NC3CCOCC3)nc21 | > 100 µM | > 100 µM | 2.86 µM |
| Cc1nc2sc3c(N)ncnc3c2c(C)c1C | > 100 µM | > 100 µM | > 100 µM |
| O=C1NC(=NCCCc2ccccc2)S/C1=C\c1ccc2ncccc2c1 | > 100 µM | > 100 µM | > 100 µM |
| Cn1cc(C2=C(c3cn(C)c4ccc(N)cc34)C(=O)NC2=O)c2ccccc21 | > 100 µM | > 100 µM | > 100 µM |
| O=C1NC(=NCc2ccccc2)S/C1=C\c1ccc2ncccc2c1 | > 100 µM | > 100 µM | > 100 µM |
| O=c1c(Oc2ccc(F)cc2F)cc2cnc(NC3CCOCC3)nc2n1CCCO | > 100 µM | > 100 µM | > 100 µM |
| Cn1cc(C2=C(c3cn(CCN)c4ccccc34)C(=O)NC2=O)c2ccccc21 | > 100 µM | > 100 µM | > 100 µM |
| Cn1c(=O)c(Oc2ccccc2)cc2cnc(NC3CCOCC3)nc21 | > 100 µM | > 100 µM | > 100 µM |
| CCCn1cc(C2=C(c3cn(C)c4ccccc34)C(=O)NC2=O)c2ccccc21 | > 100 µM | > 100 µM | > 100 µM |
| Cn1cc(C2=C(c3c[nH]c4ccccc34)C(=O)NC2=O)c2ccccc21 | > 100 µM | > 100 µM | > 100 µM |
| O=C1NC(=Nc2ccccc2)S/C1=C\c1ccc2ncccc2c1 | > 100 µM | > 100 µM | > 100 µM |

| SMILES | IC50 cell viability (PCB490-4) | IC50 cell viability (PCB490-5) | IC50 cell viability (PCB490-3) |
| --- | --- | --- | --- |
| Cn1cc(C2=C(c3c4n(c5ccccc35)CCCC4)C(=O)NC2=O)c2ccccc21 | > 100 µM | > 100 µM | > 100 µM |
| COc1ccc(F)cc1C(=O)c1cnc(NC2CCN(S(C)(=O)=O)CC2)nc1N | > 100 µM | > 100 µM | > 100 µM |
| CS(=O)(=O)N1CCC(Nc2ncc(C(=O)c3c(F)cccc3F)c(N)n2)CC1 | > 100 µM | > 100 µM | > 100 µM |
| Cc1c(C2=C(c3cn(C)c4ccccc34)C(=O)NC2=O)c2ccccc2n1C | > 100 µM | > 100 µM | > 100 µM |
| O=C1NC(=NCCc2ccccn2)S/C1=C\c1ccc2ncccc2c1 | > 100 µM | > 100 µM | > 100 µM |
| O=C1NC(=N[C@@H](CO)Cc2ccccc2)S/C1=C\c1ccc2ncccc2c1 | > 100 µM | > 100 µM | > 100 µM |
| Nc1c(C(=O)c2cccc(C#CCN3CCOCC3)c2)cnn1-c1ccc(F)cc1 | > 100 µM | > 100 µM | > 100 µM |
| Cn1cc(C2=C(Nc3ccccc3)C(=O)NC2=O)c2ccccc21 | > 100 µM | > 100 µM | > 100 µM |
| COc1cccc(C2=C(c3c(C)n(C)c4ccccc34)C(=O)NC2=O)c1 | > 100 µM | > 100 µM | > 100 µM |
| NC1=NC(=O)/C(=C/c2ccc3ncccc3c2)S1 | > 100 µM | > 100 µM | > 100 µM |
| CCCCCNC(=O)[C@@H]1CCCN2C(=O)CC[C@H](NC(=O)[C@H](Cc3ccc(OP(=O)(O)O)cc3)NC(C)=O)C(=O)N12 | > 100 µM | > 100 µM | > 100 µM |
| COc1cc(F)c(F)c(F)c1C(=O)c1cnc(NC2CCN(S(C)(=O)=O)CC2)nc1N | 4.47 µM | 7.14 µM | > 100 µM |
| CNCC#Cc1c(F)ccc2c1/C(=C/c1[nH]ccc1OC)C(=O)N2 | 20.7 µM | 19.5 µM | 26.8 µM |
| Cc1[nH]nc2c1N=C(c1ccccc1F)c1cc(C#N)ccc1N2 | > 100 µM | > 100 µM | > 100 µM |
| C[C@H](CS(C)(=O)=O)Nc1ncc2cc(Oc3ccc(F)cc3F)c(=O)n(C)c2n1 | > 100 µM | > 100 µM | > 100 µM |
| O=C1NC(=N[C@H](CO)c2ccccc2)S/C1=C\c1ccc2ncccc2c1 | > 100 µM | > 100 µM | > 100 µM |
| COc1ccc(C2=C(c3cn(C)c4ccccc34)C(=O)NC2=O)cc1 | > 100 µM | > 100 µM | > 100 µM |
| CN1C[C@@H]2Cn3c(c(C4=C(c5cn(C)c6ccccc56)C(=O)NC4=O)c4ccccc43)C[C@H]2C1 | > 100 µM | > 100 µM | > 100 µM |
| CC(=O)N1CCC(Nc2ncc3cc(Oc4ccc(F)cc4F)c(=O)n(C)c3n2)CC1 | > 100 µM | > 100 µM | > 100 µM |
| CCOc1ccccc1CCN=C1NC(=O)/C(=C/c2ccc3ncccc3c2)S1 | > 100 µM | > 100 µM | > 100 µM |
